# Results: patent US7550485B2, “Substituted N-heterocycle derivatives and methods of their use” (Wyeth, priority 2003, dated 2009)
# Structures can show the parent of a compound that is named as a salt.
# Molecular target: T1, hNET (Homo sapiens, UniProt P23975)
# T1 construct: expressed in transfected cells
# Test: Norepinephrine (NE) uptake assay in MDCK-Net6 cells stably transfected with human hNET
# Assay type: cell-based
# Settings: [3H]NE uptake; for inhibition at 1 µM: MDCK-Net6, 1 μM test compound; for inhibition at 30 µM: MDCK-Net6, 30 μM test compound (stated in cell); for EC50: test range 1 to 10,000 nM
# Summary of the method: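 MDCK-Net6 cells preincubated 20 min at 37 °C with compound (1 to 10,000 nM) in HEPES buffer pH 7.4 with pargyline and ascorbate, then 5 min [3H]NE uptake (120 nM final). Lysed cells counted by scintillation; 1 μM desipramine defined minimum uptake; EC50 from logistic fit of pooled data.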
# T1 sequence (P23975 whole entry): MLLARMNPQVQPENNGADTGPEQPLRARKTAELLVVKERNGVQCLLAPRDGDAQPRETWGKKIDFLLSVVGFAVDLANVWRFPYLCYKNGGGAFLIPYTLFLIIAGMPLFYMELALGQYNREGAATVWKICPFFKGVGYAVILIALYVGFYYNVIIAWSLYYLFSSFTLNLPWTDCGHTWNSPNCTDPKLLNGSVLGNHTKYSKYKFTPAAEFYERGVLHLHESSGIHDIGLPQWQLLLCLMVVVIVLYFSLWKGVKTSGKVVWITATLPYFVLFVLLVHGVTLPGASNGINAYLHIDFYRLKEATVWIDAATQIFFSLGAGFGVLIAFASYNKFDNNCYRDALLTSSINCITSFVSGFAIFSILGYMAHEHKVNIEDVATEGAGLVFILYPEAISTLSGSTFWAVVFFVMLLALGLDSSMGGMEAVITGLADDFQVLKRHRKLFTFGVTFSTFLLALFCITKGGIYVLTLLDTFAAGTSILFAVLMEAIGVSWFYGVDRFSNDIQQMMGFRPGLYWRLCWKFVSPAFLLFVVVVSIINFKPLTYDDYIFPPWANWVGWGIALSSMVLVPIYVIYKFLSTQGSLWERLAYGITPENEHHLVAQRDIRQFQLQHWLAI
SMILES,inhibition at 1 µM [%],also measured
"CCCC(O)(CCC)C(CN1CCC(N)CC1)c1cccc(Cl)c1 (centres unmarked) [Example 282, 4-[2-(4-aminopiperidin-1-yl)-1-(3-chlorophenyl)ethyl]heptan-4-ol dihydrochloride]",,"inhibition at 10 µM (MDCK-Net6, 10 μM test compound (stated in cell)): 4.1%"
"OC1(C(CN2CCC(N3CCCCC3)CC2)c2ccc(OC(F)(F)F)cc2)CCCCC1 (centres unmarked) [Example 284, 1-{2-(1,4′-bipiperidin-1′-yl)-1-[4-(trifluoromethoxy)phenyl]ethyl}cyclohexanol dihydrochloride]",91.1,
"NC1CCN(CC(c2ccc(OC(F)(F)F)cc2)C2(O)CCCCC2)CC1 (centres unmarked) [Example 303, 1-{2-(4-aminopiperidin-1-yl)-1-[4-(trifluoromethoxy)phenyl]ethyl}cyclohexanol dihydrochloride]",18.7,
"NC1CCN(CC(c2ccc(OC(F)(F)F)cc2)C2(O)CCC2)CC1 (centres unmarked) [Example 305, 1-{2-(4-aminopiperidin-1-yl)-1-[4-(trifluoromethoxy)phenyl]ethyl}cyclobutanol dihydrochloride]",49.9,
"NC1CCN(CC(c2ccc(Oc3ccccc3)cc2)C2(O)CCCCC2)CC1 (centres unmarked) [Example 310, 1-{2-(4-aminopiperidin-1-yl)-1-(4-phenoxyphenyl)ethyl]cyclohexanol dihydrochloride]",44.1,
"OC1(C(CN2CCC(N3CCCCC3)CC2)c2cccc(Oc3ccccc3)c2)CCCCC1 (centres unmarked) [Example 314, 1-[2-(1,4′-bipiperidin-1′-yl)-1-[3-(phenoxyphenyl)ethyl]cyclohexanoldihydrochloride]",95.5,
"NC1CCN(CC(c2cccc(Oc3ccccc3)c2)C2(O)CCCCC2)CC1 (centres unmarked) [Example 315, 1-[2-(4-aminopiperidin-1-yl)-1-(3-phenoxyphenyl)ethyl]cyclohexanol dihydrochloride]",75.2,
"OC1(C(CN2CCC(N3CCCC3)CC2)c2cccc(Oc3ccccc3)c2)CCCCC1 (centres unmarked) [Example 316, 1-[1-(3-phenoxyphenyl)-2-(4-pyrrolidin-1-ylpiperidin-1-yl)ethyl]cyclohexanol dihydrochloride]",67.5,
"CN(C)C1CCN(CC(c2ccc3ccccc3c2)C2(O)CCCCC2)CC1 (centres unmarked) [Example 317, 1-[2-[4-(dimethylamino)piperidin-1-yl]-1-(2-naphthyl)ethyl]cyclohexanol dihydrochloride]",21.2,
"COc1ccc(C(CN2CCC(N(C)C)CC2)C2(O)CCCCC2)cc1Br (centres unmarked) [Example 318, 1-{1-(3-bromo-4-methoxyphenyl)-2-[4-(dimethylamino)piperidin-1-yl]ethyl}cyclohexanol dihydrochloride]",84,
"CN(C)C1CCN(CC(c2cccc(Br)c2)C2(O)CCCCC2)CC1 (centres unmarked) [Example 319, 1-{1-(3-bromophenyl)-2-[4-(dimethylamino)piperidin-1-yl]ethyl}cyclohexanol dihydrochloride]",95.4,
"CN(C)C1CCN(CC(c2ccc(Cl)c(Cl)c2)C2(O)CCCCC2)CC1 (centres unmarked) [Example 320, 1-{1-(3,4-dichlorophenyl)-2-[4-(dimethylamino)piperidin-1-yl]ethyl}cyclohexanol dihydrochloride]",88.1,
"CN(C)C1CCN(CC(c2cccc(C(F)(F)F)c2)C2(O)CCCCC2)CC1 (centres unmarked) [Example 321, 1-{2-[4-(dimethylamino)piperidin-1-yl]-1-[3-(trifluoromethyl)phenyl]ethyl}cyclohexanol dihydrochloride]",66.1,
"NC1CCN(CC(c2cccc(Cl)c2)C2(O)CCC3CCCCC3C2)CC1 (centres unmarked) [Example 327, 2-[2-(4-aminopiperidin-1-yl-1-(3-chlorophenyl)ethyl]decahydronaphthalen-2-oldihydrochloride]",3,
"CC1CCC(O)(C(CN2CCC(N)CC2)c2cccc(Cl)c2)CC1 (centres unmarked) [Example 330, 1-[2-(4-aminopiperidin-1-yl)-1-(3-chlorophenyl)ethyl]-4-methylcyclohexanol dihydrochloride]",43.9,
"COC1CCN(CC(c2ccc(OCc3ccccc3)c(Cl)c2)C2(O)CCCCC2)CC1 (centres unmarked) [Example 339, 1-[1-[4-(benzyloxy)-3-chlorophenyl]-2-(4-methoxypiperidin-1-yl)ethyl]cyclohexanol hydrochloride]",,inhibition at 30 µM: 94%
"COc1ccc2cc(C(CN3CCC(N)CC3)C3(O)CCCCC3)ccc2c1 (centres unmarked) [Example 342, 1-[2-(4-aminopiperidin-1-yl)-1-(6-methoxy-2-naphthyl)ethyl]cyclohexanol dihydrochloride]",59,EC50: 390 nM
"COc1ccc2cc(C(CN3CCC(N(C)C)CC3)C3(O)CCCCC3)ccc2c1 (centres unmarked) [Example 343, 1-[2-[4-(dimethylamino)piperidin-1-yl]-1-(6-methoxy-2-naphthyl)ethyl]cyclohexanol dihydrochloride]",48,

SMILES,inhibition at 1 µM [%],also measured
"CNC1CCN(CC(c2ccc3cc(OC)ccc3c2)C2(O)CCCCC2)CC1 (centres unmarked) [Example 344, 1-{1-(6-methoxy-2-naphthyl)-2-[4-(methylamino)piperidin-1-yl]ethyl}cyclohexanol dihydrochloride]",52,
"COc1ccc2cc(C(CN3CCC(N4CCCC4)CC3)C3(O)CCCCC3)ccc2c1 (centres unmarked) [Example 345, 1-[1-(6-methoxy-2-naphthyl)-2-(4-pyrrolidin-1-ylpiperidin-1-yl)ethyl]cyclohexanol dihydrochloride]",65,EC50: 530 nM
"COc1ccc2cc(C(CN3CCC(N4CCCCC4)CC3)C3(O)CCCCC3)ccc2c1 (centres unmarked) [Example 346, 1-[2-(1,4′-bipiperidin-1′-yl)-1-(6-methoxy-2-naphthyl)ethyl]cyclohexanol dihydrochloride]",81,EC50: 190 nM
"CNC1CCN(C[C@H](c2cccc(OC(F)(F)F)c2)C2(O)CCCCC2)CC1 [Example 359, 1-{(1S)-2-[4-(methylamino)piperidin-1-yl]-1-[3-(trifluoromethoxy)phenyl]ethyl}cyclohexanol dihydrochloride]",86,EC50: 290 nM
"CN(C)C1CCN(C[C@H](c2cccc(OC(F)(F)F)c2)C2(O)CCCCC2)CC1 [Example 360, 1-{(1S)-2-[4-(dimethylamino)piperidin-1-yl]-1-[3-(trifluoromethoxy)phenyl]ethyl}cyclohexanol dihydrochloride]",88,EC50: 220 nM
"OC1(C(CN2CCC(N3CCOCC3)CC2)c2cccc(OC(F)(F)F)c2)CCCCC1 (centres unmarked) [Example 361, 1-{2-(4-morpholin-4-ylpiperidin-1-yl)-1-[3-(trifluoromethoxy)phenyl]ethyl}cyclohexanol dihydrochloride]",67,EC50: 640 nM
"OC1([C@H](CN2CCC(N3CCCC3)CC2)c2cccc(OC(F)(F)F)c2)CCCCC1 [Example 365, 1-{(1S)-2-(4-pyrrolidin-1-ylpiperidin-1-yl)-1-[3-(trifluoromethoxy)phenyl]ethyl}cyclohexanol dihydrochloride]",94,EC50: 78 nM
"OC1([C@H](CN2CCC(N3CCCCC3)CC2)c2cccc(OC(F)(F)F)c2)CCCCC1 [Example 366, 1-{(1S)-2-(1,4′-bipiperidin-1′-yl)-1-[3-(trifluoromethoxy)phenyl]ethyl}cyclohexanol dihydrochloride]",99,EC50: 110 nM
"N[C@@H]1CCN(CC(c2ccc3ccccc3c2)C2(O)CCCCC2)C1 (stereo partly drawn) [Example 374, 1-[2-[(3R)-3-aminopyrrolidin-1-yl]-1-(2-naphthyl)ethyl]cyclohexanol dihydrochloride]",46,
"CN(C)[C@@H]1CCN(CC(c2ccc3ccccc3c2)C2(O)CCCCC2)C1 (stereo partly drawn) [Example 375, 1-[2-[(3R)-3-(dimethylamino)pyrrolidin-1-yl]-1-(2-naphthyl)ethyl]cyclohexanol dihydrochloride]",39,
"CN[C@@H]1CCN(CC(c2ccc3ccccc3c2)C2(O)CCCCC2)C1 (stereo partly drawn) [Example 376, 1-[2-[(3R)-3-(methylamino)pyrrolidin-1-yl]-1-(2-naphthyl)ethyl]cyclohexanol dihydrochloride]",30,
"N[C@@H]1CCN(CC(c2cccc3ccccc23)C2(O)CCCCC2)C1 (stereo partly drawn) [Example 377, 1-[2-[(3R)-3-aminopyrrolidin-1-yl]-1-(1-naphthyl)ethyl]cyclohexanol dihydrochloride]",,inhibition at 30 µM: 82%
"CN(C)[C@@H]1CCN(CC(c2cccc3ccccc23)C2(O)CCCCC2)C1 (stereo partly drawn) [Example 378, 1-[2-[(3R)-3-(dimethylamino)pyrrolidin-1-yl]-1-(1-naphthyl)ethyl]cyclohexanol dihydrochloride]",28,
"CN[C@@H]1CCN(CC(c2cccc3ccccc23)C2(O)CCCCC2)C1 (stereo partly drawn) [Example 379, 1-[2-[(3R)-3-(methylamino)pyrrolidin-1-yl]-1-(1-naphthyl)ethyl]cyclohexanol dihydrochloride]",19,
"N[C@@H]1CCN(CC(c2ccc(OCc3ccccc3)cc2)C2(O)CCCCC2)C1 (stereo partly drawn) [Example 380, 1-{2-[(3R)-3-aminopyrrolidin-1-yl]-1-[4-(benzyloxy)phenyl]ethyl}cyclohexanol dihydrochloride]",20,
"CN(C)[C@@H]1CCN(CC(c2ccc(OCc3ccccc3)cc2)C2(O)CCCCC2)C1 (stereo partly drawn) [Example 381, 1-{1-[4-(benzyloxy)phenyl]-2-[(3R)-3-(dimethylamino)pyrrolidin-1-yl]ethyl}cyclohexanol dihydrochloride]",,inhibition at 30 µM: 95%
"CN[C@@H]1CCN(CC(c2ccc(OCc3ccccc3)cc2)C2(O)CCCCC2)C1 (stereo partly drawn) [Example 382, 1-{1-[4-(benzyloxy)phenyl]-2-[(3R)-3-(methylamino)pyrrolidin-1-yl]ethyl}cyclohexanol dihydrochloride]",50,
"N[C@@H]1CCN(CC(c2ccc(OCc3ccccc3)c(Cl)c2)C2(O)CCCCC2)C1 (stereo partly drawn) [Example 383, 1-{2-[(3R)-3-aminopyrrolidin-1-yl]-1-[4-(benzyloxy)-3-chlorophenyl]ethyl}cyclohexanol dihydrochloride]",90,
